Like-named read-outs stand apart in the source and are kept apart here.
Legend:
TRKA = target: T1, TRKA (Homo sapiens, UniProt P04629); test: HTRF KinEASE-TK kinase activity inhibition assay, TRKA; assay type: biochemical; conditions: ATP 100 µM
T1 construct: purchased Carna bioscience 08-186
Description: (§1) The following method was used to determine the inhibition degrees of the compounds of the present invention on the activity of recombinant human NTRK family kinase in vitro. In this method, HTRF®KinEASE-TK tyrosine kinase kit (article number: 62TK0PEB) of Cisbio company was used, and the principle of the kit was based on time-resolved fluorescence resonance energy transfer (TF-FRET), and the inhibition of the compounds on the activity of the NTRK kinase was reflected by determining a phosphorylation degree of a biotinylated polypeptide substrate mediated by NTRK kinase. For detailed experimental operation, please refer to the kit instruction. Recombinant human wild-type NTRK proteins were purchased from Carna bioscience (the article numbers were TRKA #08-186, TRKB #08-187 and TRKC #08-197 respectively), and recombinant human mutant NTRK proteins were purchased from SignalChem (the article numbers were TRKA G595R #N16-12BG-10, TRKA G667C # N16-12CG-10, and TRKC G623R # N18-12CH-10 respectively).
(§2) The experimental methods were operated according to the steps in the kit instruction, and were briefly described as follows: a test compound was first dissolved in DMSO to prepare a storage solution, and then diluted in gradient with a buffer provided in the kit. A final concentration of the test compound in the reaction system ranged from 1,000 nM to 0.004 nM. An ATP Km value concentration of each NTRK protein was determined by using an ATP solution diluted in gradient (Sangon Biotech (Shanghai) Co., Ltd., A600311). According to the Km value obtained, the ATP concentrations in the reaction system were set as 100 µM for TRKA, 10 µM for TRKB, 50 µM for TRKC, 7 µM for TRKA(G595R), 1 µM for TRKA(G667C) and 100 µM for TRKC(G623R). The reaction was carried out in a 384-well microplate. Firstly, the compound and a certain amount of corresponding NTRK protein were added to the wells and incubated for 5 minutes to 10 minutes at room temperature. Then, the ATP solution and the biotinylated polypeptide substrate solution were added to the reaction solution and incubated with shaking at room temperature for 60 minutes. Then, an anti-phosphorylated tyrosine antibody coupled with a europium compound and streptavidin coupled with modified allophycocyanin XL665 were added to the reaction, and continuously incubated with shaking at room temperature for 1 hour. After incubation, fluorescence intensity values of each well at an excitation wavelength of 304 nm, and emission wavelengths of 620 nm and 665 nM were determined in a TF-FRET mode on a microplate reader. Compared with the fluorescence intensity ratio of a control group (0.1% DMSO), the percentage inhibition rates of the compound at each concentration were calculated, and the IC50 value of the compound was obtained by performing nonlinear regression analysis for logarithmic value of the compound concentration - inhibition rate by GraphPad Prism 5 software, which can be seen in Table 1. Table 1 IC50 data of the compounds of the present invention on TRK enzyme activity inhibition

TRKA(G667C) = target: T2, TRKA(G667C) (Homo sapiens, UniProt P04629, G667C); test: HTRF KinEASE-TK kinase activity inhibition assay, TRKA(G667C); assay type: biochemical; conditions: ATP 1 µM
T2 construct: purchased SignalChem N16-12CG-10
Description: as §1, §2

TRKA(G595R) = target: T3, TRKA(G595R) (Homo sapiens, UniProt P04629, G595R); test: HTRF KinEASE-TK kinase activity inhibition assay, TRKA(G595R); assay type: biochemical; conditions: ATP 7 µM
T3 construct: purchased SignalChem N16-12BG-10
Description: as §1, §2

[1] = Pharmacokinetic study on ICR mice (plasma, LC-MS/MS); assay type: in vivo; conditions: male, mouse; for bioavailability: 5 mg/kg oral intake vs 1 mg/kg injection, read-out: Bioavailability F(%); for AUC(0-inf): read-out: Area under curve AUC0-∞; for Cmax: read-out: Blood concentration Cmax; for half-life: read-out: Half-life T1/2(h) (converted); for clearance: read-out: Clearance rate
Description: ICR mice, male, 29.0 g to 33.8g, purchased from Beijing Charles River Laboratory Animal Technology Co., Ltd.
Intravenous injection group: an appropriate amount of drug was weighed, and added with mixed solvent (DMA: 30% Solutol HS-15: Saline = 10: 10: 80 (v/v/v)) to prepare the drug with a final concentration of 0.2 mg/mL.
Oral gavage administration group: an appropriate amount of drug was weighed, added with an appropriate amount of sodium carboxymethyl cellulose (CMC-Na, containing 0.5% Tween 80), vortex shaked, and ultrasonically prepared into […] suspension.
For ICR mice, each compound to be tested was divided into an intravenous injection group (9 mice in each group) and an intragastric group (9 mice in each group). The ICR mice were fasted overnight and then administered by orbital intravenous injection (administration dose of 1 mg/kg, and administration volume of 5 mL/kg) and administered by intragastric injection (administration dose of 5 mg/kg, and administration volume of 10 mL/kg), and ate 4 hours after administration.
About 0.2 mL of blood was collected via jugular vein before administration and 0.083 hour, 0.25 hour, 0.5 hour, 1 hour, 2 hours, 4 hours, 8 hours, 12 hours and 24 hours after administration, and heparin sodium was used for anticoagulation. The collected blood samples were placed on ice, and plasma was separated by centrifugation (centrifugation condition: 1500 g, 10 minutes). The collected plasma was stored at-40°C to -20°C before analysis.
LC-MS/MS was used to determine the contents of different compounds to be tested in mouse plasma after intravenous injection and intragastric administration.
The pharmacokinetic parameters of the compounds of the present invention and the positive control can be seen in Table 8. Table 8 Results of pharmacokinetic parameters

TRKB = target: T4, TRKB (Homo sapiens, UniProt Q16620); test: HTRF KinEASE-TK kinase activity inhibition assay, TRKB; assay type: biochemical; conditions: ATP 10 µM
T4 construct: purchased Carna bioscience 08-187
Description: as §1, §2

TRKC = target: T5, TRKC (Homo sapiens, UniProt Q16288); test: HTRF KinEASE-TK kinase activity inhibition assay, TRKC; assay type: biochemical; conditions: ATP 50 µM
T5 construct: purchased Carna bioscience 08-197
Description: as §1, §2

TRKC(G623R) = target: T6, TRKC(G623R) (Homo sapiens, UniProt Q16288, G623R); test: HTRF KinEASE-TK kinase activity inhibition assay, TRKC(G623R); assay type: biochemical; conditions: ATP 100 µM
T6 construct: purchased SignalChem N18-12CH-10
Description: as §1
as §2, with “Then, an anti-phosphorylated tyrosine antibody coupled with a europium compound and streptavidin coupled with modified allophycocyanin XL665 were added to the reaction, and continuously incubated with shaking at room temperature for 1 hour.” left out, “Table 1 IC50 data of the compounds of the present invention on TRK enzyme activity inhibition” left out

[2] = intravenous, 1 mg/kg, injection

T3 sequence (P04629 33-796 G595R): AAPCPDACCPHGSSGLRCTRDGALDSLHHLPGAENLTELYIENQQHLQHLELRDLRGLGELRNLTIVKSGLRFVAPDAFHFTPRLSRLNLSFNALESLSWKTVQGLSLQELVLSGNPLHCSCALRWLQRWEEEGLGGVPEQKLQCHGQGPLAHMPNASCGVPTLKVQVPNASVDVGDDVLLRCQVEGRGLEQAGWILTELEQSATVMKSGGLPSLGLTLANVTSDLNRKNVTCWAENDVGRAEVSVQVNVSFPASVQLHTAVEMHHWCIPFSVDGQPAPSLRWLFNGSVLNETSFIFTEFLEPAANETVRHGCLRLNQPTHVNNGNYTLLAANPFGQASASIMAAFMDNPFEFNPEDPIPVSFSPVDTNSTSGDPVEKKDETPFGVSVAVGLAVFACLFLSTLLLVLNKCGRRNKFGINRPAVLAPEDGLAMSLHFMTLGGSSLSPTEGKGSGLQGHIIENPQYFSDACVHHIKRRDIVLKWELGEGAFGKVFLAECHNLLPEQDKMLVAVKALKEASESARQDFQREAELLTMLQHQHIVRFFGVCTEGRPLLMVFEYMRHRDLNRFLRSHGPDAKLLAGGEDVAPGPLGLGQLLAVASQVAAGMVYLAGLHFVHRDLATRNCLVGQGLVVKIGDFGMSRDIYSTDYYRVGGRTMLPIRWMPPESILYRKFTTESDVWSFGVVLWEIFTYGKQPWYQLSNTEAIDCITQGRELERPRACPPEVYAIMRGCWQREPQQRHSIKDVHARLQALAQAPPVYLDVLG
T4 sequence (Q16620 32-822): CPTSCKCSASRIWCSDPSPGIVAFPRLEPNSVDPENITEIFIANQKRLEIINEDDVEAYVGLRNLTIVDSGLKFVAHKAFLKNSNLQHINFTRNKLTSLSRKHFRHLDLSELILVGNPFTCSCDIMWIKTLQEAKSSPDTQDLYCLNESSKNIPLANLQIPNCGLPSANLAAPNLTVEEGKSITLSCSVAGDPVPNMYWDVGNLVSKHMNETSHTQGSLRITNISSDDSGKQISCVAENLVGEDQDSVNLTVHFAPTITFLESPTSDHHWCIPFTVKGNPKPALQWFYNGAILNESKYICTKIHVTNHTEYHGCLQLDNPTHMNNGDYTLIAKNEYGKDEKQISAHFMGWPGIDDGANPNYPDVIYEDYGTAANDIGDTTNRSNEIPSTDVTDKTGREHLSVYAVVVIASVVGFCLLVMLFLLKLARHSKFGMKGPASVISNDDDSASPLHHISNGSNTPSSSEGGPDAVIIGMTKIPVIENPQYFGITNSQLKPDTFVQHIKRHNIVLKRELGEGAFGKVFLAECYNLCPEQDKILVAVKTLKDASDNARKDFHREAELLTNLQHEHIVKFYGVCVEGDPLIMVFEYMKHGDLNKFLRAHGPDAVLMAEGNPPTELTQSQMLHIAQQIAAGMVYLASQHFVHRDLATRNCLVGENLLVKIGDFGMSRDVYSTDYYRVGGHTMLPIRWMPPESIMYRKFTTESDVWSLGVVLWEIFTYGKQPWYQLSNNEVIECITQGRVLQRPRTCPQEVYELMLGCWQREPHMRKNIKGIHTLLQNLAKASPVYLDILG
T2 sequence (P04629 33-796 G667C): as the sequence (P04629 33-796 G595R) above, with R563G, G635C counted along it
T5 sequence (Q16288 32-839): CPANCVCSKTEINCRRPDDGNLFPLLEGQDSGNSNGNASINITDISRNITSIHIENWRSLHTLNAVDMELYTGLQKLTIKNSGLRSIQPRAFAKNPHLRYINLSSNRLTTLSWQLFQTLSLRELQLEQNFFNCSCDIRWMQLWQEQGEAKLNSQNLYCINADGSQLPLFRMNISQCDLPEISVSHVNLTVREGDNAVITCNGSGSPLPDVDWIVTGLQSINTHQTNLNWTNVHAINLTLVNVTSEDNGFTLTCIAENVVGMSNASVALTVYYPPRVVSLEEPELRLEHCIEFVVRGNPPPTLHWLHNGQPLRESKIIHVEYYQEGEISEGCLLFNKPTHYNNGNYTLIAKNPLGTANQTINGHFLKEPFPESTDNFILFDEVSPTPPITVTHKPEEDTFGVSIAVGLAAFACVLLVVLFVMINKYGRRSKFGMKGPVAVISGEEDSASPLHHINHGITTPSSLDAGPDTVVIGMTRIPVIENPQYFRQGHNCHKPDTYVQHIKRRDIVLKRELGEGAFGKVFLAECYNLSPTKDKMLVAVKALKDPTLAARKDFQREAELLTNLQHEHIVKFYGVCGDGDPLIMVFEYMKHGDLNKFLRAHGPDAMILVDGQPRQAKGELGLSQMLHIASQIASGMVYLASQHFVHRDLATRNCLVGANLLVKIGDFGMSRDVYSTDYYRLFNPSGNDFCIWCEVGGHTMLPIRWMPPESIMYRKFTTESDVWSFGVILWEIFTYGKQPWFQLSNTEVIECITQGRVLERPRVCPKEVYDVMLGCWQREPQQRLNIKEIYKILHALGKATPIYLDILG
T1 sequence (P04629 33-796): as the sequence (P04629 33-796 G595R) above, with R563G counted along it
T6 sequence (Q16288 32-839 G623R): as the sequence (Q16288 32-839) above, with G592R counted along it

Row | SMILES | IC50 (TRKA) | IC50 (TRKA(G667C)) | IC50 (TRKA(G595R)) | IC50 (TRKB) | IC50 (TRKC) | also measured
1 | C[C@H]1Nc2ccn3ncc(c3n2)C(=O)NCC[C@]2(C)Cc3cc(F)cc1c3O2 [Example 21, (3R,11S)-6-fluoro-3,11-dimethyl-10-oxa-2,14,18,1 9,22-pentaazapentacyclo[14.5.2.1^8,11.0^4,9.0^19,23]tetra cosa-1(22),4,6,8,16(23),17,20-heptaen-15-one] | 18.5 nM | 24.6 nM |  |  |  | 
2 | C[C@H]1CNC(=O)c2cnn3ccc(nc23)N[C@H](C)c2cc(F)ccc2O1 [repotrectinib, reference compound] |  |  |  |  |  | bioavailability [1]: 13%; AUC(0-inf) ([1]; 5 mg/kg, oral intake): 530 ng·h/mL; Cmax ([1]; 5 mg/kg, oral intake): 154 ng/mL; half-life ([1]; 5 mg/kg, oral intake): 2.93 h; AUC(0-inf) [1, 2]: 824 ng·h/mL; clearance [1, 2]: 20.2 mL/min/kg; half-life [1, 2]: 3.9 h
3 | C[C@H]1Nc2ccc3ncc(n3n2)C(=O)NC[C@@]2(C)Cc3cc(F)cc1c3O2 [Example 26, (3R,11R)-6-fluoro-3,11-dimethyl-10-oxa-2,13,17,21,22-pentaazapentacyclo[13.5.2.1^8,11.0^4,9.0^18 ,22]tricosa-1(21),4,6,8,15,17,19-heptaen-14-one] | 0.97 nM | 15.5 nM | 8.6 nM | 1.3 nM | 0.8 nM | 
4 | C[C@H]1Nc2ccn3ncc(c3n2)C(=O)NC[C@]2(C)Cc3cc(F)c(F)c1c3O2 [Example 11, (3R,11S)-5,6-difluoro-3,11-dimethyl-10-oxa-2,13,1 7,18,21-pentaazapentacyclo[13.5.2.1^8,11.0^4,9.0^18,22]t ricosa-1(21),4,6,8,15(22),16,19-heptaen-14-one] | 4.5 nM |  |  |  | 0.63 nM | 
5 | C[C@H]1Nc2ccn3ncc(c3n2)C(=O)NCC[C@@]2(C)Cc3cc(F)cc1c3O2 [Example 20, (3R,11R)-6-fluoro-3,11-dimethyl-10-oxa-2,14,18,1 9,22-pentaazapentacyclo[14.5.2.1^8,11.0^4,9.0^19,23]tetra cosa-1(22),4,6,8,16(23),17,20-heptaen-15-one] | 5.9 nM | 4.2 nM |  |  |  | 
6 | C[C@H]1Nc2ccn3ncc(c3n2)C(=O)NCC2(CF)Cc3cc(F)cc1c3O2 (stereo partly drawn) [Example 18, (3R)-6-fluoro-11-(fluoromethyl)-3-methyl-10-oxa-2,13,17,18,21-pentaazapentacyclo[13.5.2.1^8,11.0^4,9. 0^18,22]tricosa-1(21),4,6,8,15(22),16,19-heptaen-14-one] | 0.63 nM | 6.11 nM | 3.9 nM | 0.17 nM | 1.37 nM | 
7 | C[C@H]1Nc2ccn3ncc(c3n2)C(=O)NC[C@@H]2COc3cc(F)cc1c3O2 [Example 7, (2R,14R)-19-fluoro-2-methyl-16,22-dioxa-3,5,7,8, 12-pentaazapentacyclo[12.6.2.2^4,7.0^6,10.0^17,21]tetrac osa-1(20),4,6(10),8,17(21),18,23-heptaen-11-one] | 2.05 nM | 21.1 nM | 2.65 nM | 0.32 nM |  | IC50 (TRKC(G623R)): 25.3 nM
8 | C[C@H]1Nc2ccn3ncc(c3n2)C(=O)NCC2Cc3cc(F)cc1c3O2 (stereo partly drawn) [Example 1, (3R)-6-fluoro-3-methyl-10-oxa-2,13,17,18,21-pent aazapentacyclo[13.5.2.1^8,11.0^4,9.0^18,22]tricosa-1(21), 4,6,8, 15(22),16, 19-heptaen-14-one] | 1.66 nM |  | 11.3 nM | 0.29 nM | 0.5 nM | 
9 | COC[C@@]12CNC(=O)c3cnn4ccc(nc34)N[C@H](C)c3cc(F)cc(c3O1)C2 [Example 15, (3R,11R)-6-fluoro-11-(methoxymethyl)-3-methyl-10-oxa-2,13,17,18,21-pentaazapentacyclo[13.5.2.1 ^8,11.0^4,9.0^18,22]tricosa-1(21),4,6,8,15(22),16,19-hept aen-14-one] | 2.8 nM |  |  |  | 0.37 nM | 

Now from value to compound, other results behind:

Row | IC50 (TRKA) | IC50 (TRKA(G667C)) | IC50 (TRKA(G595R)) | IC50 (TRKB) | IC50 (TRKC) | SMILES | also measured
10 | 4.83 nM |  | 15.3 nM |  |  | C[C@H]1Nc2ccn3ncc(c3n2)C(=O)NC[C@]2(C)COc3cc(F)cc1c3O2 [Example 23, (2R,14R)-19-fluoro-2,14-dimethyl-16,22-dioxa-3,5 ,7,8,12-pentaazapentacyclo[12.6.2.2^4,7.0^6,10.0^17,21]te tracosa-1(20),4,6(10),8,17(21),18,23-heptaen-11-one] | 
11 | 1.05 nM |  | 11.3 nM | 0.34 nM |  | C[C@H]1Nc2ccn3ncc(c3n2)C(=O)NCCC2=Cc3cc(F)cc1c3O2 [Example 6, (3R)-6-fluoro-3-methyl-10-oxa-2,14,18,19,22-pent aazapentacyclo[14.5.2.1^8,11.0^4,9.0^19,23]tetracosa-1(2 2),4,6,8,11(24),16(23),17,20-octaen-15-one] | 
12 | 0.92 nM |  | 4.31 nM | 0.76 nM | 2.63 nM | C[C@H]1Nc2ccn3ncc(c3n2)C(=O)NCC2(C)Cc3cc(F)cc1c3O2 (stereo partly drawn) [Example 5, (3R)-6-fluoro-3,11-dimethyl-10-oxa-2,13,17,18,21-pentaazapentacyclo[13.5.2.1^8,11.0^4,9.0^18,22]tricosa-1 (21),4,6,8,15(22),16,19-heptaen-14-one] | bioavailability [1]: 65%; AUC(0-inf) ([1]; 5 mg/kg, oral intake): 6040 ng·h/mL; Cmax ([1]; 5 mg/kg, oral intake): 2600 ng/mL; half-life ([1]; 5 mg/kg, oral intake): 2.03 h; AUC(0-inf) [1, 2]: 1850 ng·h/mL; clearance [1, 2]: 9 mL/min/kg; half-life [1, 2]: 1.79 h; IC50 (TRKC(G623R)): 14.5 nM
13 | 1.7 nM |  | 3.31 nM | 0.33 nM | 0.47 nM | C[C@H]1Nc2ccn3ncc(c3n2)C(=O)NCC[C@H]2Cc3cc(F)cc1c3O2 [Example 3, (3R,11R)-6-fluoro-3-methyl-10-oxa-2,14,18,19,22-pentaazapentacyclo[14.5.2.1^8,11.0^4,9.0^19,23]tetracosa-1(22),4,6,8,16(23),17,20-heptaen-15-one] | 
14 | 3.4 nM |  | 19.3 nM | 0.25 nM | 1.16 nM | C[C@H]1Nc2ccn3ncc(c3n2)C(=O)NCC2(CO)Cc3cc(F)cc1c3O2 (stereo partly drawn) [Example 19, (3R)-6-fluoro-11-(hydroxymethyl)-3-methyl-10-ox a-2,13,17,18,21-pentaazapentacyclo[13.5.2.1^8,11.0^4, 9.0^18,22]tricosa-1(21),4,6,8,15(22),16,19-heptaen-14-one] | 

Source: patent EP3974434B1, “MACROLIDE DERIVATIVES, PREPARATION METHOD AND APPLICATION THEREOF” (Zhejiang Hisun Pharmaceutical Co., Ltd., priority 2019, dated 2020)
